The values below come from patent publication US12473296B2, “Perk inhibiting compounds” (HiberCell, Inc., priority 2019, dated 2025).

Bounds are passed on as bounds.

In one test the target is PERK (Homo sapiens (Human), UniProt Q9NZJ5). As to the kind of experiment: PERK cellular assay (TR-FRET, HEK293-EGFP-eIF2α cells, tunicamycin-induced ER stress). It is filed as cell-based. As to conditions: tunicamycin 2 hours, read-out: Cellular IC50 (μM) (EIF2a). The procedure: Stable cell lines were created in HEK293 cells using lentiviral particles harboring an expression vector for GFP-eIF2α. Cells were selected using puromycin and enriched using fluorescence activated cell sorting against GFP. HEK293-EGFP-eIF2α cells were plated at 5000 cells/well in 384-well assay plates and incubated overnight at 37° C., 5% CO2. Inhibitor compounds were added to the wells by Echo acoustic dispensing and incubated for 30 minutes at 37° C., 5% CO2 prior to induction of ER stress by addition of tunicamycin to […] for 2 hours. Cells were lysed and TR-FRET was measured in an EnVision plate reader (PerkinElmer). FRET ratio data was normalized to signal from lysates treated with DMSO vehicle control and plotted as percent inhibition against 10-point; 3-fold dilution series of inhibitors. IC50 values were calculated using 4-parameter logistical fitting in XLFit.

The target of test [1] is EIF2AK3 (PERK) catalytic domain (amino acids 536-1116) (Homo sapiens (Human), UniProt Q9NZJ5). As to the kind of experiment: PERK in vitro activity assay (isolated), TR-FRET kinase assay. As to conditions: isolated PERK enzyme, 1.5 μM ATP, GFP-eIF2a substrate; read-out: Biochemical IC50. The source says: PERK In Vitro Activity Assay (Isolated):
In vitro Inhibition of PERK Enzyme Activity (isolated) Recombinant human EIF2AK2 (PKR) catalytic domain (amino acids 252-551), EIF2AK3 (PERK) catalytic domain (amino acids 536-1116), GFP-eIF2a substrate, and Terbium-labelled phospho-eIF2a antibody is obtained (Invitrogen, Carlsbad, CA).
Express and purify HIS-SUMO-GCN2 catalytic domain (amino acids 584-1019) from E. coli. Perform TR-FRET kinase assays in the absence or presence of inhibitors in a reaction buffer consisting of 50 mM HEPES, pH 7.5, 10 mM MgCb, 1.0 mM EGTA, and 0.01% Brij-35, and 100-200 nM GFP-eIF2a substrate. […] Add test compound, initiate the reaction by addition of enzyme, and incubate at room temperature for 45 minutes. Stop the reaction by addition of EDTA to a final concentration of 10 mM, add Terbium-labelled phospho-eIF2a antibody at a final concentration of 2 nM, and incubate for 90 minutes. Monitor the resulting fluorescence in an EnVison® Multilabel reader (PerkinElmer, Waltham, MA). Determine TR-FRET ratios and the resulting IC50 values using a 4-parameter nonlinear logistic equation as shown: Y=(A+((B−A)/(1+((C/x)[…])))) where, Y=% specific inhibition, A=Bottom of the curve, B=Top of the curve, C=absolute IC50 (concentration causing 50% inhibition), and D=hill slope.
For orientation: TR-FRET usually uses a lanthanide donor and a delayed reading to cut background.

PERK, sequence (Q9NZJ5 30-1116): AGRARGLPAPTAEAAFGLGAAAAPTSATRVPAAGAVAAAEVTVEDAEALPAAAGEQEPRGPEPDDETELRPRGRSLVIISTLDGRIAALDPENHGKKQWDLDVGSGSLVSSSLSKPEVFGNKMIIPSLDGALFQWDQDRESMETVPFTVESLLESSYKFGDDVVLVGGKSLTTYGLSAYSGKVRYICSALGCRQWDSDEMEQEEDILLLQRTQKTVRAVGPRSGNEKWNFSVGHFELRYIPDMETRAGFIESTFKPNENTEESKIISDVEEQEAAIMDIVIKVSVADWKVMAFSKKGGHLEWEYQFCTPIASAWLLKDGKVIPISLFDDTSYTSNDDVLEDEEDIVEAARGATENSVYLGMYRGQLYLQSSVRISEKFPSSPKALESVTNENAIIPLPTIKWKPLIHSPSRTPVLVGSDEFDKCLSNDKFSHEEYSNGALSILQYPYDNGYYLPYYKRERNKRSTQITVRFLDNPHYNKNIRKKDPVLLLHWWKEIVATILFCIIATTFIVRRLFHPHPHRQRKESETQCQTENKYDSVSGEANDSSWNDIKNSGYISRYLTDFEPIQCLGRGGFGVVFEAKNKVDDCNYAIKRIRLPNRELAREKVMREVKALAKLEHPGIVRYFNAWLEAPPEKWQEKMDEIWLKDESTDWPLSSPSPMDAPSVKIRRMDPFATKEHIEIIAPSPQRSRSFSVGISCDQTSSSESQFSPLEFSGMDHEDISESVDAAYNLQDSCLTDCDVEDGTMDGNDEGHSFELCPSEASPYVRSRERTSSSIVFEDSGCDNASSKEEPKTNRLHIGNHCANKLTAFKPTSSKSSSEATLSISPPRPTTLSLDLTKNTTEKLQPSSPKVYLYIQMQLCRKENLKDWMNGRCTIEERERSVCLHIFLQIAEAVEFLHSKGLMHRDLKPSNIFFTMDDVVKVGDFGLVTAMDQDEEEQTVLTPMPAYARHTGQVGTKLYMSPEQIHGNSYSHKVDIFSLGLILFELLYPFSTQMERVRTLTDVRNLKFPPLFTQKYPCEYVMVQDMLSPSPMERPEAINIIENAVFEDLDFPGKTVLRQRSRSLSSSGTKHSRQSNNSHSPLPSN
EIF2AK3 (PERK) catalytic domain (amino acids 536-1116), sequence (Q9NZJ5 536-1116): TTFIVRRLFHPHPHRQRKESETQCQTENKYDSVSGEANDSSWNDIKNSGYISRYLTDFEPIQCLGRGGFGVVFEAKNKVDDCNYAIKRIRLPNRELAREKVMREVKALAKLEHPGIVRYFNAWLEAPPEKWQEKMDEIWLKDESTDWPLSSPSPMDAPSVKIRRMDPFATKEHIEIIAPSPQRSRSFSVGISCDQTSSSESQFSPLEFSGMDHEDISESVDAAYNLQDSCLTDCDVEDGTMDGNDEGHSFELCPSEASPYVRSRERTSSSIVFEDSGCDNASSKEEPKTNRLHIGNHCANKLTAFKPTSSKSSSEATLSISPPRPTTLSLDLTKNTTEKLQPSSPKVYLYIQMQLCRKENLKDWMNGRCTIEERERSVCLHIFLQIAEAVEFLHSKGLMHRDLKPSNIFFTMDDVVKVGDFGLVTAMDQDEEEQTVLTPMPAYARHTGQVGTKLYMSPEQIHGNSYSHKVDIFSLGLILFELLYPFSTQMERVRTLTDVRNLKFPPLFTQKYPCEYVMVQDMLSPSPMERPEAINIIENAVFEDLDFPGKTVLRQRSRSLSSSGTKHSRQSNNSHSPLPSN

Consider `CCc1cc(NC(=O)C(O)c2cc(F)cc(F)c2)ccc1-c1cnc(N)c(C(=O)NCC(F)(F)F)n1` (single isomer, unassigned) [Example 154, 3-amino-6-(4-(2-(3,5-difluorophenyl)-2-hydroxyacetamido)-2-ethylphenyl)-N-(2,2,2-trifluoroethyl) pyrazine-2-carboxamide], for which the figures for the IC50 (at PERK; in test [1]) were 0.001 to 0.025 µM and 1 to 25 nM, respectively.
For `CCc1cc(NC(=O)C(O)c2cc(F)cc(F)c2)ccc1-c1cnc(N)c(C(=O)NCC(F)(F)F)n1` (single isomer, unassigned) [Example 155, 3-amino-6-(4-(2-(3,5-difluorophenyl)-2-hydroxyacetamido)-2-ethylphenyl)-N-(2,2,2-trifluoroethyl) pyrazine-2-carboxamide] the same measures were 0.101 to 0.25 µM and 101 to 250 nM.
For `Cc1cc(NC(=O)C(C)(O)c2ccccc2)ccc1-c1cnc(N)c(C(=O)NC(C)C)c1` (stereo not drawn) [Example 3, 2-amino-5-(4-(2-hydroxy-2-phenylpropanamido)-2-methylphenyl)-N-isopropylnicotinamide], the IC50 on PERK is 2 to 3 µM; in test [1], 101 to 250 nM.
Taken in the same sequence, the figures for `Cc1cc(NC(=O)C(C)(O)c2ccccc2)ccc1-c1cnc(N)c(C(=O)NC(C)C)c1` (stereo not drawn) [Example 4, 2-amino-5-(4-(2-hydroxy-2-phenylpropanamido)-2-methylphenyl)-N-isopropylnicotinamide] were 3 to 4 µM and 101 to 250 nM.
Taken in the same sequence, the figures for `COC(C(=O)Nc1ccc(-c2cnc(N)c(C(=O)NC(C)C)c2)c(C)c1)c1ccccc1` (stereo not drawn) [Example 5, 2-amino-N-isopropyl-5-(4-(2-methoxy-2-phenylacetamido)-2-methylphenyl) nicotinamide] were 3 to 4 µM and 1000 to 2000 nM.
Taken in the same sequence, the figures for `Cc1cc(NC(=O)C(N)c2ccccc2)ccc1-c1cnc(N)c(C(=O)NC(C)C)c1` (stereo not drawn) [Example 6, 2-amino-5-(4-(2-amino-2-phenylacetamido)-2-methylphenyl)-N-isopropyl-nicotinamide] were 3 to 4 µM and 1000 to 2000 nM.
Consider `Cc1cc(NC(=O)C(N)c2ccccc2)ccc1-c1cnc(N)c(C(=O)NC(C)C)c1` (stereo not drawn) [Example 7, 2-amino-5-(4-(2-amino-2-phenylacetamido)-2-methylphenyl)-N-isopropylnicotinamide], for which the IC50 on PERK was above 5 µM; in test [1], 1000 to 2000 nM.
For the compound `Cc1cc(NC(=O)C(O)c2cc(F)cc(F)c2)ccc1-c1cnc(N)c(C(=O)NC(C)C)c1` (stereo not drawn) [Example 8, 2-amino-5-(4-(2-(3,5-difluorophenyl)-2-hydroxyacetamido)-2-methylphenyl)-N-isopropyl nicotinamide], the figures for the IC50 (at PERK; in test [1]) were 0.026 to 0.05 µM and 1 to 25 nM, respectively.
For `Cc1cc(NC(=O)C(O)c2cc(F)cc(F)c2)ccc1-c1cnc(N)c(C(=O)NC(C)C)c1` (stereo not drawn) [Example 9, 2-amino-5-(4-(2-(3,5-difluorophenyl)-2-hydroxyacetamido)-2-methylphenyl)-N-isopropyl nicotinamide] the same measures were 0.101 to 0.25 µM and 26 to 50 nM.
Turning to `Cc1cc(NC(=O)[C@H](O)c2cc(F)cc(F)c2)ccc1-c1cnc(N)c(C(=O)NC2CC2)c1` [Example 14, (R)-2-amino-N-cyclopropyl-5-(4-(2-(3,5-difluorophenyl)-2-hydroxyacetamido)-2-methylphenyl)nicotinamide], the IC50 at PERK was 0.026 to 0.05 µM; in test [1] it was 1 to 25 nM.
With `Cc1cc(NC(=O)C(O)c2cc(F)cc(F)c2)ccc1-c1cnc(N)c(C(=O)NC2CC2)c1` (stereo not drawn) [Example 15, 2-amino-N-cyclopropyl-5-(4-(2-(3,5-difluorophenyl)-2-hydroxyacetamido)-2-methylphenyl) nicotinamide], the IC50 on PERK was 0.251 to 0.5 µM; in test [1] it was 26 to 50 nM.
In the case of `Cc1cc(NC(=O)C(O)c2cc(F)cc(F)c2)ccc1-c1cnc(N)c(C(=O)NCC(C)C)c1` (stereo not drawn) [Example 20, 2-amino-5-(4-(2-(3,5-difluorophenyl)-2-hydroxyacetamido)-2-methylphenyl)-N-isobutylnicotinamide], the IC50 fell in the range of 0.026 to 0.05 µM at PERK and 1 to 25 nM in test [1].
For `Cc1cc(NC(=O)C(O)c2cc(F)cc(F)c2)ccc1-c1cnc(N)c(C(=O)NCC(C)C)c1` (stereo not drawn) [Example 21, 2-amino-5-(4-(2-(3,5-difluorophenyl)-2-hydroxyacetamido)-2-methylphenyl)-N-isobutylnicotinamide] the same measures were 0.251 to 0.5 µM and 101 to 250 nM.
With `Cc1cc(NC(=O)C(O)c2cc(F)cc(F)c2)ccc1-c1cnc(N)c(C(=O)N(C)C)c1` (stereo not drawn) [Example 22, 2-amino-5-(4-(2-(3,5-difluorophenyl)-2-hydroxyacetamido)-2-methylphenyl)-N,N-dimethylnicotinamide], the figures for the IC50 (on PERK; in test [1]) were 2 to 3 µM and 501 to 1000 nM, respectively.
Taken in the same sequence, the figures for `Cc1cc(NC(=O)C(O)c2cc(F)cc(F)c2)ccc1-c1cnc(N)c(C(=O)N(C)C)c1` (stereo not drawn) [Example 23, 2-amino-5-(4-(2-(3,5-difluorophenyl)-2-hydroxyacetamido)-2-methylphenyl)-N,N-dimethylnicotinamide] were above 5 µM and above 5000 nM.
Take `Cc1cc(NC(=O)C(O)c2cc(F)cc(F)c2)ccc1-c1cnc(N)c(C(=O)NC2COC2)c1` (stereo not drawn) [Example 24, 2-amino-5-(4-(2-(3,5-difluorophenyl)-2-hydroxyacetamido)-2-methylphenyl)-N-(oxetan-3-yl)nicotinamide]: the figures for the IC50 (on PERK; in test [1]) were 0.051 to 0.1 µM and 1 to 25 nM, respectively.
Regarding `Cc1cc(NC(=O)C(O)c2cc(F)cc(F)c2)ccc1-c1cnc(N)c(C(=O)NC2COC2)c1` (stereo not drawn) [Example 25, 2-amino-5-(4-(2-(3,5-difluorophenyl)-2-hydroxyacetamido)-2-methylphenyl)-N-(oxetan-3-yl)nicotinamide], the values for the IC50 (at PERK; in test [1]) were 0.501 to 1 µM and 26 to 50 nM, respectively.
For `Cc1cc(NC(=O)C(O)c2cc(F)cc(F)c2)ccc1-c1cnc(N)c(C(=O)NC2CC(O)C2)c1` (stereo not drawn) [Example 26, 2-amino-5-(4-(2-(3,5-difluorophenyl)-2-hydroxyacetamido)-2-methylphenyl)-N-(3-hydroxycyclobutyl) nicotinamide] the same measures were 0.101 to 0.25 µM and 1 to 25 nM.
For `Cc1cc(NC(=O)C(O)c2cc(F)cc(F)c2)ccc1-c1cnc(N)c(C(=O)NC2CC(O)C2)c1` (stereo not drawn) [Example 27, 2-amino-5-(4-(2-(3,5-difluorophenyl)-2-hydroxyacetamido)-2-methylphenyl)-N-(3-hydroxycyclobutyl) nicotinamide] the same measures were 1 to 2 µM and 51 to 100 nM.
With `COC1CC(NC(=O)c2cc(-c3ccc(NC(=O)C(O)c4cc(F)cc(F)c4)cc3C)cnc2N)C1` (stereo not drawn) [Example 28, 2-amino-5-(4-(2-(3,5-difluorophenyl)-2-hydroxyacetamido)-2-methylphenyl)-N-(3-methoxycyclobutyl) nicotinamide], the IC50 was in the range of 0.026 to 0.05 µM on PERK and 1 to 25 nM in test [1].
Take `COC1CC(NC(=O)c2cc(-c3ccc(NC(=O)C(O)c4cc(F)cc(F)c4)cc3C)cnc2N)C1` (stereo not drawn) [Example 29, 2-amino-5-(4-(2-(3,5-difluorophenyl)-2-hydroxyacetamido)-2-methylphenyl)-N-(3-methoxycyclobutyl) nicotinamide]: the IC50 was 0.251 to 0.5 µM at PERK and 26 to 50 nM in test [1].
For `CC(=O)N1CC(NC(=O)c2cc(-c3ccc(NC(=O)C(O)c4cc(F)cc(F)c4)cc3C)cnc2N)C1` (stereo not drawn) [Example 30, N-(1-acetylazetidin-3-yl)-2-amino-5-(4-(2-(3,5-difluorophenyl)-2-hydroxyacetamido)-2-methylphenyl) nicotinamide] the same measures were 0.501 to 1 µM and 1 to 25 nM.
For `CC(=O)N1CC(NC(=O)c2cc(-c3ccc(NC(=O)C(O)c4cc(F)cc(F)c4)cc3C)cnc2N)C1` (stereo not drawn) [Example 31, N-(1-acetylazetidin-3-yl)-2-amino-5-(4-(2-(3,5-difluorophenyl)-2-hydroxyacetamido)-2-methylphenyl) nicotinamide] the same measures were 3 to 4 µM and 51 to 100 nM.
For `CC(C)NC(=O)c1cc(-c2ccc(NC(=O)C(O)c3cc(F)cc(F)c3)cc2F)cnc1N` (stereo not drawn) [Example 32, 2-amino-5-(4-(2-(3,5-difluorophenyl)-2-hydroxyacetamido)-2-fluorophenyl)-N-isopropylnicotinamide] the same measures were 0.051 to 0.1 µM and 1 to 25 nM.

By IC50 is commonly meant the concentration needed to halve the response being measured.
